The source of these data is patent US20150374394A1, “SONOLYSIS WITH BIODEGRADABLE NANOPARTICLES” (THE BOARD OF TRUSTEES OF THE UNIVERSITY OF ARKANSAS, priority 2012, published 2015).

This experiment relates to clots formed from pooled rabbit plasma with rabbit blood cells. Nature of the experiment: In vitro sonothrombolysis (STBL) of clots with MBs, CPDL, tPA and/or 450 nm StNPs, pulsed 1 MHz ultrasound. The settings on record: pulsed 1 MHz ultrasound 15 min, in bovine calf serum, 0.5 mL/min; control ultrasound alone; 3 μm MBs, 0.1 mg/ml tPA, 0.06% w/V CPDL nanoemulsion. The procedure: FIG. 1 depicts a graph showing the potentiation of sonothrombolysis (STBL) efficacy by microbubbles (MBs) and/or a nanoemulsion of cyclopentadecanolide with or without tissue plasminogen activator (tPA). […] STBL was performed with fibrin-rich clots (see Example 2) using pulsed, 1 MHz ultrasound for 15 min. The MBs, tPA, StNPs etc. were suspended in bovine calf serum and introduced at a flow rate of 0.5 mL/min. STBL efficacy is reported as % clot lysis. Abbreviations: US=ultrasound; MBs=microbubbles; CPDL=cyclopentadecanolide; StNPs=starch nanoparticles; tPA=tissue plasminogen activator.
The clots used in these experiments were formed by mixing pooled rabbit plasma with rabbit blood cells (final volume equal to 2 mL; the volume of whole rabbit blood from which the cells were obtained), incubating this mixture for 24 h at 37° C. and then curing the formed clots for 24 h at 5° C. […] The StNPs were diluted to have an Optical Density reading at 530 nm (OD530) of 1.0. […] STBL efficacy was measured as the percent of the initial clot mass that was lost from the clot during the 15 min treatment time.

On to `O=C1CCCCCCCCCCCCCCO1` [CPDL, cyclopentadecanolide], for which the “STBL efficacy (FIG. 1), in words” value was “improved STBL efficacy markedly”.
